Experimental data as given in publication PMC6934184, “Selective DNA-PKcs inhibition extends the therapeutic index of localized radiotherapy and chemotherapy” (The Journal of Clinical Investigation, 2019).

Biological target: T1, PRKD1 (PKC mu) (Homo sapiens, UniProt Q15139)
T1 construct: purchased Thermo Fisher Scientific (Life Technologies) SelectScreen
Test: SelectScreen Z'LYTE
Assay type: biochemical
How it was run: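 NU5455 was profiled across the SelectScreen Broad panel of kinase activity and binding assays. Z'LYTE reactions such as CSF1R ran at apparent Km ATP, while the Adapta CAMK1 assay used ATP listed as 10. Values are given as percent.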

T1 sequence (Q15139 whole entry): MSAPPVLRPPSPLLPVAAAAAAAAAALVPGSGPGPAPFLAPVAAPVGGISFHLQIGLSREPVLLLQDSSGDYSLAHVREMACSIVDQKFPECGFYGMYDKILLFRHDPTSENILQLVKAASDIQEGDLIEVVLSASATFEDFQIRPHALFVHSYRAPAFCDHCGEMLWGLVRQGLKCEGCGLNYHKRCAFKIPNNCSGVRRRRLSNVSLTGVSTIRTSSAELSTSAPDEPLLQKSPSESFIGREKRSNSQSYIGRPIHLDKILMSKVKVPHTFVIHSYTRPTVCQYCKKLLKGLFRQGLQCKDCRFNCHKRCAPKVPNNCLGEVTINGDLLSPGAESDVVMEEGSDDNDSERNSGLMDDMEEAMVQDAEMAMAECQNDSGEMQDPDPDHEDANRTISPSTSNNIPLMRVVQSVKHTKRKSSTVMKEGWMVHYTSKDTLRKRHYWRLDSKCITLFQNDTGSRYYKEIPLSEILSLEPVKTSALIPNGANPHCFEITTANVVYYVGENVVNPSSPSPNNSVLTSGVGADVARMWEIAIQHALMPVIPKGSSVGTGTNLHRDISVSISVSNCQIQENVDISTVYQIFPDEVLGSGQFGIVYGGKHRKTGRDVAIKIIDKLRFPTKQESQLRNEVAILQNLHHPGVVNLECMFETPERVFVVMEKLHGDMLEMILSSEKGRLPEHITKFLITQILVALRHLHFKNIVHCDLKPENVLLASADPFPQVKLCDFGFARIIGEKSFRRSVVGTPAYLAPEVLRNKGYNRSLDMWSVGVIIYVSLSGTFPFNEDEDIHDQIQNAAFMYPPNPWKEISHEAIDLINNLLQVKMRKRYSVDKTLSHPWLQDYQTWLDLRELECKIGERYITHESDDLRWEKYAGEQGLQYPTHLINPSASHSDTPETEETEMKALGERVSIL

`CN(C(=O)CN1CCOCC1)c1ccc2sc3c(-c4cccc5c(=O)cc(N6CC7CCC(C6)O7)oc45)cccc3c2c1` [NU5455] gave an inhibition at 1 µM of -8.5%.
